Results as given in PMC9471048, “The signaling and selectivity of α‐adrenoceptor agonists for the human α2A, α2B and α2C‐adrenoceptors and comparison with human α1 and β‐adrenoceptors” (Pharmacology Research & Perspectives, 2022).
Like-named read-outs stand apart in the source and are kept apart here.

Legend:
human α2A‐adrenoceptor [1] = molecular target: T1, human α2A‐adrenoceptor (Homo sapiens, UniProt P08913); conditions: for % inhibition, CRE‐SPAP (with forskolin): % inhibition from the 3 μM forskolin control, inhibition only; for Log efficacy ratio (KD/IC50): binding KD / Gi IC50 of CRE‐SPAP; for % inhibition, CRE-SPAP (with forskolin): from 3 μM forskolin control
T1 sequence (P08913 1-465): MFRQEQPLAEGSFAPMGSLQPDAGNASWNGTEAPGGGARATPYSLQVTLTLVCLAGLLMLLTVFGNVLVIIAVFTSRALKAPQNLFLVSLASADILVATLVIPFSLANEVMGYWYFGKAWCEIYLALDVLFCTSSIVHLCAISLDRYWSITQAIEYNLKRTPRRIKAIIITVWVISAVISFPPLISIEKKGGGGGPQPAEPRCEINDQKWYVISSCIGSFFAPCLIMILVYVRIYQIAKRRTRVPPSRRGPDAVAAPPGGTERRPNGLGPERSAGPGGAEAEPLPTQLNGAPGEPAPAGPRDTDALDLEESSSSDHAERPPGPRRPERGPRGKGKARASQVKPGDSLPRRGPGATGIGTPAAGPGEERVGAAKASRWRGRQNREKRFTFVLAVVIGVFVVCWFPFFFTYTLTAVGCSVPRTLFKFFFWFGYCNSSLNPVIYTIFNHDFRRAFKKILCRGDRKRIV

human α2C‐adrenoceptor [2] = molecular target: T2, human α2C‐adrenoceptor (Homo sapiens, UniProt P18825); conditions: for Log efficacy ratio (KD/IC50): log KD from 3H‐rauwolscine binding versus CRE‐SPAP log IC50
T2 sequence (P18825 1-462): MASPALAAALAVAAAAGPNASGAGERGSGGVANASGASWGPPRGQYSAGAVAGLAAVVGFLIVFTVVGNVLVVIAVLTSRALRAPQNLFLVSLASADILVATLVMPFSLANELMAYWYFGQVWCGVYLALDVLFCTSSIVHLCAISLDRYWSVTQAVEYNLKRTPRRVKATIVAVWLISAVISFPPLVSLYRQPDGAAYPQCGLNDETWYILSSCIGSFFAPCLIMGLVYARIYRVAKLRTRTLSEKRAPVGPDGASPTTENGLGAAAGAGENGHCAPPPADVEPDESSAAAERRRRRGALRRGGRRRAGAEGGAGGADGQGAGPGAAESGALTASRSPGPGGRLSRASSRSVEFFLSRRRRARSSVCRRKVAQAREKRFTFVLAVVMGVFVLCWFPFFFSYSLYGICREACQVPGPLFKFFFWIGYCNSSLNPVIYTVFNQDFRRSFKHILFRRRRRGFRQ

human α2A‐adrenoceptor [3] = molecular target: T1, human α2A‐adrenoceptor; experiment: 3H‐rauwolscine whole cell binding in CHO‐α2A cells; design: expressed in transfected cells; host or cells: CHO-K1 with CRE-SPAP reporter
human α2C‐adrenoceptor [4] = molecular target: T2, human α2C‐adrenoceptor; experiment: 3H‐rauwolscine whole cell binding in CHO‐α2C cells; design: expressed in transfected cells; host or cells: CHO-K1 with CRE-SPAP reporter
human α2A‐adrenoceptor [5] = molecular target: T1, human α2A‐adrenoceptor; experiment: ERK1/2‐phosphorylation in CHO‐α2A cells; format: cell-based; design: expressed in transfected cells; host or cells: CHO-K1 with CRE-SPAP reporter
human α2C‐adrenoceptor [6] = molecular target: T2, human α2C‐adrenoceptor; experiment: ERK1/2‐phosphorylation in CHO‐α2C cells; format: cell-based; design: expressed in transfected cells; host or cells: CHO-K1 with CRE-SPAP reporter
[7] = CHO‐α2A (cell line 1), absence of forskolin
[8] = CHO‐α2C cells, % inhibition from the 3 μM forskolin control, mean ± SEM
[9] = CHO‐α2C cells, CRE‐SPAP production in the absence of forskolin
[10] = Log IC50 (Gi), CRE‐SPAP (with forskolin), CHO‐α2C cells, inhibition of 3 μM forskolin‐stimulated CRE‐SPAP production, given as negative log IC50, mean ± SEM
[11] = 3H‐rauwolscine whole cell binding, living cells, negative log KD, mean ± SEM, read-out: Log KD, CHO‐α2A (converted)
[12] = CHO‐α2A, 3H‐rauwolscine whole cell binding, given as negative log KD, read-out: Log KD (binding) (converted)
[13] = fold, from KD values, 1 = no selectivity
[14] = 3H‐rauwolscine whole cell binding, living cells, negative log KD, mean ± SEM, read-out: Log KD, CHO‐α2C (converted)
[15] = CHO‐α2C cells, 3H‐rauwolscine whole cell binding, given as negative log KD, mean only (SEM in Table 4), read-out: Log KD (converted)
[16] = CHO‐α2A, maximum response compared to 10 μM PDBu
[17] = CHO‐α2A, read-out: Log EC50, ERK1/2‐phosphorylation (converted)
[18] = CHO‐α2C cells, maximum response compared to 10 μM PDBu, mean ± SEM
[19] = CHO‐α2C cells, given as negative log EC50, mean ± SEM, read-out: Log EC50, ERK1/2‐phosphorylation (converted)
[20] = read-out: Log KD (binding) (converted)
[21] = read-out: Log KD, CHO‐α2A (converted)
[22] = Log IC50 (Gi), CRE‐SPAP (with forskolin), CHO‐α2A (cell line 1, 5830 fmol/mg protein), 3 μM forskolin
[23] = 3H‐rauwolscine whole cell binding, ^app: apparent KD, IC50 from extrapolated curve as not all specific binding was inhibited, read-out: Log KD (apparent), CHO‐α2A (converted)
[24] = 3H‐rauwolscine whole cell binding, ^app: apparent KD, IC50 from extrapolated curve as not all specific binding was inhibited, read-out: Log KD (apparent), CHO‐α2C (converted)

Row | SMILES | % inhibition, CRE‐SPAP (with forskolin) (human α2A‐adrenoceptor [1]; CHO‐α2A (cell line 1)) [%] | Log EC50 (Gs), CRE‐SPAP (without forskolin) (human α2A‐adrenoceptor [1]; [7]) | Log efficacy ratio (KD/IC50) (human α2A‐adrenoceptor [1]; CHO‐α2A) | % inhibition, CRE‐SPAP (with forskolin) (human α2C‐adrenoceptor [2]; [8]) [%] | Log EC50 (Gs), CRE‐SPAP (without forskolin) (human α2C‐adrenoceptor [2]; [9]) | Log efficacy ratio (KD/IC50) (human α2C‐adrenoceptor [2]; CHO‐α2C cells) | IC50 (human α2C‐adrenoceptor [2]; [10]) [µM] | Kd (human α2A‐adrenoceptor [3]; [12]) [µM] | Selectivity ratio α2A vs α2B (higher affinity for α2A) (human α2A‐adrenoceptor [3]; [13]) | Selectivity ratio α2A vs α2C (higher affinity for α2A) (human α2A‐adrenoceptor [3]; [13]) | Kd (human α2C‐adrenoceptor [4]; [14]) [µM] | Kd (human α2C‐adrenoceptor [4]; [15]) [µM] | Selectivity ratio α2B vs α2C (higher affinity for α2C) (human α2C‐adrenoceptor [4]; [13]) | % 10 μM PDBu, ERK1/2‐phosphorylation (human α2A‐adrenoceptor [5]; [16]) [%] | EC50 (human α2A‐adrenoceptor [5]; [17]) [µM] | % 10 μM PDBu, ERK1/2‐phosphorylation (human α2C‐adrenoceptor [6]; [18]) [%] | EC50 (human α2C‐adrenoceptor [6]; [19]) [µM] | also measured
1 | c1ccc(C2CC2)c(OCC2=NCCN2)c1 [Cirazoline] | 43.6 ± 4.4 | No response | −0.16 | 74.2 ± 2.1 | No response | 0.41 | 0.331 | 0.417 | 16.2 | 2.0 | 0.851 | 0.851 | 7.9 | 113.0 ± 14.3 | 0.158 | 139.1 ± 10.2 | 0.0832 | IC50 (human α2A‐adrenoceptor [1]): 0.603 µM; Kd (human α2A‐adrenoceptor [3]; [11]): 0.417 µM
2 | Cc1cccc([C@H](C)c2cnc[nH]2)c1C [Dexmedetomidine] | – | – | – | – | – | – | – | – | – | – | – | – | – | – | – | – | – | % 3 μM forskolin, CRE‐SPAP (without forskolin) (human α2A‐adrenoceptor [1]): 23.6 ± 2.7%; % inhibition, CRE‐SPAP (with forskolin) (human α2C‐adrenoceptor [2]): 73.4 ± 4.4%; Log EC50 (Gs), CRE‐SPAP (without forskolin) (human α2C‐adrenoceptor [2]): No response; IC50 (human α2C‐adrenoceptor [2]; Log IC50 (Gi), CRE‐SPAP (with forskolin)): 0.000692 µM; higher affinity for α2 than α1‐adrenoceptor subtypes (human α2A‐adrenoceptor [3]): 100 fold; Kd (human α2C‐adrenoceptor [4]; read-out: Log KD (converted)): 0.0302 µM; Kd (human α2C‐adrenoceptor [4]; read-out: Log KD, CHO‐α2C (converted)): 0.0302 µM; % 10 μM PDBu, ERK1/2‐phosphorylation (human α2A‐adrenoceptor [5]): 138.5 ± 15.4%; % 10 μM PDBu, ERK1/2‐phosphorylation (human α2C‐adrenoceptor [6]): 153.0 ± 18.5%; EC50 (human α2C‐adrenoceptor [6]; read-out: Log EC50, ERK1/2‐phosphorylation (converted)): 0.000263 µM
3 | CC(CCc1ccc(O)cc1)NCCc1ccc(O)c(O)c1 (stereo not drawn) [Dobutamine] | – | No response | – | – | No response | – | – | – | – | – | 5.5 | 5.5 | – | – | 2 | – | 0.759 | Log IC50 (Gi), CRE‐SPAP (with forskolin) (human α2A‐adrenoceptor [1]; CHO‐α2A (cell line 1, 5830 fmol/mg protein), 3 μM forskolin): No response; IC50 (human α2C‐adrenoceptor [2]): 20.9 µM; Kd (human α2A‐adrenoceptor [3]; [20]): 20.4 µM; Kd (human α2A‐adrenoceptor [3]; [21]): 20.4 µM
4 | CN[C@@H](C)[C@H](O)c1ccccc1 [Ephedrine] | – | – | – | – | – | – | – | – | – | – | – | – | – | – | – | – | – | Log EC50 (Gs), CRE‐SPAP (without forskolin) (human α2A‐adrenoceptor [1]): No response; Log IC50 (Gi), CRE‐SPAP (with forskolin) (human α2A‐adrenoceptor [1]): No response; Log EC50 (Gs), CRE‐SPAP (without forskolin) (human α2C‐adrenoceptor [2]): No response; Log IC50 (Gi), CRE‐SPAP (with forskolin) (human α2C‐adrenoceptor [2]): No response; Kd (human α2A‐adrenoceptor [3]): 34.7 µM; Selectivity ratio α2A vs α2B (higher affinity for α2A) (human α2A‐adrenoceptor [3]): 4.2; Selectivity ratio α2A vs α2C (higher affinity for α2A) (human α2A‐adrenoceptor [3]): 1.1; Kd (human α2A‐adrenoceptor [3]; Log KD, CHO‐α2A): 34.7 µM; Kd (human α2C‐adrenoceptor [4]): 39.8 µM; Selectivity ratio α2B vs α2C (higher affinity for α2C) (human α2C‐adrenoceptor [4]): 3.6; Kd (human α2C‐adrenoceptor [4]; Log KD, CHO‐α2C): 39.8 µM; % 10 μM PDBu, ERK1/2‐phosphorylation (human α2A‐adrenoceptor [5]): 123.1 ± 17.3%; EC50 (human α2A‐adrenoceptor [5]): 16.6 µM; % 10 μM PDBu, ERK1/2‐phosphorylation (human α2C‐adrenoceptor [6]): 88.0 ± 12.5%; EC50 (human α2C‐adrenoceptor [6]): 33.1 µM
5 | CCNCC(O)c1cccc(O)c1 (stereo not drawn) [Etilefrine] | 101.3 ± 4.6 | No response | 0.61 | 86.2 ± 7.2 | No response | 1.01 | 12 | 195 | 2.1 | – | – | 123 | 3.4 | 150.8 ± 10.2 | 3.24 | 182.2 ± 9.6 | 3.16 | IC50 (human α2A‐adrenoceptor [1]; [22]): 47.9 µM; Kd (human α2A‐adrenoceptor [3]; [23]): 195 µM; Kd (human α2C‐adrenoceptor [4]; [24]): 123 µM; Selectivity ratio α2A vs α2C (higher affinity for α2C) (human α2C‐adrenoceptor [4]; [13]): 1.6
6 | C[C@H](N)[C@H](O)c1cccc(O)c1 [Metaraminol] | 87.0 ± 1.3 | No response | 1.22 | 85.5 ± 1.8 | No response | 1.56 | – | – | 1.5 | – | 28.8 | 28.8 | 2.7 | 136.4 ± 13.9 | 0.24 | 158.8 ± 22.2 | 0.158 | IC50 (human α2A‐adrenoceptor [1]): 3.16 µM; IC50 (human α2C‐adrenoceptor [2]): 0.794 µM; Kd (human α2A‐adrenoceptor [3]; [20]): 52.5 µM; Kd (human α2A‐adrenoceptor [3]; [21]): 52.5 µM; Selectivity ratio α2A vs α2C (higher affinity for α2C) (human α2C‐adrenoceptor [4]; [13]): 1.8
7 | COc1ccc(OC)c(C(O)C(C)N)c1 (stereo not drawn) [Methoxamine] | – | No response | – | 72.3 ± 13.6 | No response | 1.01 | 11 | 93.3 | 2.5 | 1.2 | – | 112 | 2.1 | 120.9 ± 29.4 | 6.03 | 131.0 ± 19.2 | 2.34 | IC50 (human α2A‐adrenoceptor [1]; IC50 (Gi), CRE‐SPAP (with forskolin), CHO‐α2A, 3 μM forskolin): > 100 µM; Kd (human α2A‐adrenoceptor [3]; [23]): 93.3 µM; Kd (human α2C‐adrenoceptor [4]; [24]): 112 µM
8 | c1ccc2c(CC3=NCCN3)cccc2c1 [Naphazoline] | 83.1 ± 3.6 | No response | 0.78 | 81.3 ± 4.2 | No response | 0.72 | 0.0759 | 0.0977 | 16.2 | 4.1 | 0.398 | 0.398 | 4.0 | 118.1 ± 9.0 | 0.00191 | 157.8 ± 12.6 | 0.0126 | % inhibition, CRE-SPAP (with forskolin) (human α2A‐adrenoceptor [1]; CHO-α2A cell line 2, 4724 fmol/mg protein): 69.4 ± 5.8%; % inhibition, CRE-SPAP (with forskolin) (human α2A‐adrenoceptor [1]; CHO-α2A cell line 3, 121 fmol/mg protein): 24.8 ± 4.3%; IC50 (human α2A‐adrenoceptor [1]; Log IC50 (Gi), CRE-SPAP (with forskolin), CHO-α2A cell line 2, expression 4724 fmol/mg protein, 3 μM forskolin): 0.0575 µM; IC50 (human α2A‐adrenoceptor [1]; Log IC50 (Gi), CRE-SPAP (with forskolin), CHO-α2A cell line 3, expression 121 fmol/mg protein, 3 μM forskolin): 0.417 µM; IC50 (human α2A‐adrenoceptor [1]; [22]): 0.0162 µM; Kd (human α2A‐adrenoceptor [3]; [11]): 0.0977 µM
